The values that follow come from US20240398787A1, “TREATMENT OF MAJOR DEPRESSIVE DISORDER” (AbbVie Inc., priority 2021, published 2024).

This test has as its system patients with major depressive disorder (MDD). In words: Clinical Global Impressions-Severity (CGI-S) score, Clinical Study A. Type of test: in vivo, human. The following applies: MMRM; for LS mean change from baseline, CGI-S score / LSMD vs placebo, CGI-S score: week 6. As to the method: A global, multicenter, randomized, double-blind (DB), placebo-controlled, parallel-group, fixed-dose study compared cariprazine 1.5 mg/day and cariprazine 3 mg/day with placebo as an adjunctive treatment to ongoing ADT in outpatients with a diagnosis of MDD (via the Diagnostic and Statistical Manual of Mental Disorders, Fifth Edition [DSM-5]) having an inadequate response, as measured by the modified Antidepressant Treatment Response Questionnaire (ATRQ), to 1 to 3 antidepressants administered during the current episode at an adequate dose and adequate duration. Adequate dose was defined as a dose above the minimum labeled dose (per package insert). Adequate duration was defined as continuous ADT treatment for at least 6 weeks, with a minimum of 3 of 6 weeks above the minimal dose.
The study consisted of up to 14 days screening (with up to an additional 7 days of needed) and washout of prohibited medications followed by 6 weeks of double-blind (DB) treatment followed by a 4-week safety follow-up. At the end of the screening period, patients meeting the entry criteria for the study were randomized (1:1:1) to 1 of 3 double-blind treatment groups. Study treatment groups were: cariprazine 1.5 mg/day+antidepressant therapy and cariprazine 3 mg/day+antidepressant therapy. The control group received matching placebo+antidepressant therapy.
Dosage/Dose Regimen: Investigational product (cariprazine or placebo) in the form of capsules packaged in blister packs will be provided. No investigational product was administered during the screening/washout period; patients continued the same antidepressant and dose they were on at screening. Patients were taking more than one antidepressant at screening, regardless of the indication, discontinued all other antidepressants prior to baseline (Visit 2). During the double-blind treatment period (6 weeks), patients were administered 1 capsule orally per day in addition to their ongoing ADT. Patients in the 1.5 mg/day+ADT arm were administered 1.5 mg+ADT starting at Visit 2 (Week 0). Patients in the 3 mg/day+ADT arm were administered 1.5 mg+ADT starting at Visit 2 (Week 0) for 2 weeks and then titrate to 3 mg/day+ADT starting at Visit 4 (Week 2). Patients were supplied with identically appearing capsules of either cariprazine 1.5 mg, cariprazine 3 mg, or placebo.
A randomized, double-blind, placebo-controlled, multicenter trial with 759 participants was conducted in United States, Bulgaria, Estonia, Germany, Hungary, Ukraine, and the United Kingdom. Following a screening period of up to 14 days (with up to an additional 7 days if needed), which included a washout of prohibited psychotropic medications except for ongoing ADT, patients with a partial response to their antidepressant monotherapy were randomized into three treatment groups (1:1:1). One group received cariprazine 1.5 mg/d+ADT, one received cariprazine 3.0 mg/d+ADT, and one group received placebo+ADT. All participants randomized to cariprazine began on 1.5 mg/d; cariprazine 1.5 mg/d patients remained at that dosage, while cariprazine 3.0 mg/d patients received 1.5 mg/d for 2 weeks and increased to 3.0 mg/d on day 15.
The primary and secondary efficacy parameters were change from baseline to week 6 in Montgomery-Åsberg Depression Rating Scale (MADRS) total score and Clinical Global Impressions-Severity (CGI-S) score, respectively (screening, baseline, and weeks 1, 2, 4, and 6). Additional efficacy parameters (screening, baseline, and ≥1 double-blind visit) included: MADRS response (≥50% MADRS total score reduction) and remission (MADRS total score ≤10); change from baseline in HAMD-17 total score and Hamilton Anxiety Rating Scale (HAM-A) total score (32); and Clinical Global Impressions-Improvement (CGI-I) score and response (CGI-I score ≤2).
The CGI-S (Guy 1976) is a clinician-rated scale that measures the overall severity of a patient's illness in comparison with the severity in other patients the physician has observed. […]

Molecules are shown by their SMILES.

Turning to `CN(C)C(=O)N[C@H]1CC[C@H](CCN2CCN(c3cccc(Cl)c3Cl)CC2)CC1` [Cariprazine, trans-N-{4-[2-[4-(2,3-dichlorophenyl)piperazin-1-yl]ethyl]cyclohexyl}-N′,N′-dimethylurea], the “LS Mean (SE) change from baseline, CGI-S score” value is recorded as −0.3 (0.1) (1.5 mg/day + ADT, week 1); −0.7 (0.1) (1.5 mg/day + ADT, week 2); −1.1 (0.1) (1.5 mg/day + ADT, week 4); −0.3 (0.1) (3 mg/day + ADT, week 1); −0.6 (0.1) (3 mg/day + ADT, week 2); −1.0 (0.1) (3 mg/day + ADT, week 4). The “LSMD (95% CI) vs placebo + ADT, CGI-S score” value reads like this: (1.5 mg/day + ADT, week 1) −0.1 (−0.2, 0); (1.5 mg/day + ADT, week 2) −0.1 (−0.2, 0.1); (1.5 mg/day + ADT, week 4) −0.3 (−0.4, −0.1); (3 mg/day + ADT, week 1) 0 (−0.1, 0.1); (3 mg/day + ADT, week 2) 0 (−0.2, 0.1); (3 mg/day + ADT, week 4) −0.1 (−0.3, 0.1). The “LS mean change from baseline, CGI-S score” value is −1.4 (0.1) (1.5 mg/day + ADT) and −1.3 (0.1) (3 mg/day + ADT). Moreover, the “LSMD vs placebo, CGI-S score” value reads like this: (1.5 mg/day + ADT) −0.3 (−0.5, −0.1); (3 mg/day + ADT) −0.2 (−0.4, 0).
